For one experiment, the system named is mice. Description: phenylquinone-induced writhing test in mice (PQW), analgesia. Format: in vivo, male, CD-1 mice. The following applies: Mus musculus; for ED50: SC, printed in PQW % column, read-out: ED50 (PQW). How it is done: Compounds of this invention produce analgesia when administered to mammals. A phenylquinone-induced writhing test in mice (PQW) was used as an assay to detect analgesia. The procedure employed was a modification of Siegmund, E., Cadmus, R. and Lu, G: Proc. Soc. Exptl. Bio. Med., 95: 729 (1957). 12.5 mg of phenyl-p-benzoquinone were dissolved in 5 ml of 95% ethanol and q.s. to 100 ml with distilled water and administered to mice (10 ml/kg, i.p.). This produces a characteristic "writhe" which is defined as an inward rotation of one or more feet with twisting and turning of the trunk, drawing in of the abdominal wall, lordosis and arching of the back.
A total of 28 male, CD-1 mice (18 to 30 grams) were employed for a time response. Animals recived food and water ad libitum. Drugs to be tested were prepared with distilled water and, if insoluble, one drop of a suitable surfactant was added.
Twenty animals (5/group) were administered the drug 15, 30, 45 and 60 minutes prior to phenylquinone injections. Control animals (2/group) received an equal amount of vehicle. After the administration of phenylquinone the mice were placed separately into one-liter beakers and 5 minutes were allowed to lapse. The mice were then observed for a period of 10 minutes and the number of writhes were recorded for each animal. The formula for computing percent inhibition is: [formula]
The time period with the greatest percent of inhibition is considered the peak time.
A dose range is run in the same fashion as a time response except 10 animals per group were tested at the peak time of drug activity. Fifty animals, 4 drug groups, and a vehicle control were employed. Animals were dosed and tested in a randomized manner. An estimated ED50 was calculated by a computer linear regression analysis.

Experiment [1] has as its system spontaneous hypertensive rat. As to the kind of experiment: antihypertensive activity, spontaneous hypertensive rat (SHR) test, indirect tail cuff method. In kind it is in vivo. Conditions: Table III. The protocol:
Compounds of this invention are useful as antihypertensive agents due to their ability to depress blood pressure in mammals. Antihypertensive activity is measured in the spontaneous hypertensive rat by the indirect tail cuff method described by A. Schwartz, Ed., Methods in Pharmacology, Vol. page 135, Appleton Century Crafts, New York (1971). […] The drop in blood pressure is measured on the third day following administration. The antihypertensive activity is expressed as mm Hg decrease in mean arterial blood pressure.

The mark [2] stands for this setting: Table III, 20 mg/kg SC, read-out: PQW % (percent inhibition of writhing).

Data on 13 compounds can be found in patent publication US4521537A, “Spiro[2H-1,4-benzodioxepin-3(5H)4'-piperidine and -3'-pyrrolidine] compounds and their use as antihypertensive agents” (Hoechst-Roussel Pharmaceuticals Incorporated, priority 1984, dated 1985).

Structures can show the parent of a compound that is named as a salt. Where two headings read alike, the source gives them in different places.

Consider `CCOC(=N)N1CCC2(CC1)OCc1ccccc1OC2C` (stereo not shown) [Example 72, 2-Methylspiro[2H-1,4-benzodioxepin-3(5H)4'-piperidine]-1'-carboximidic acid, ethyl ester hydrochloride], for which, in the experiment with mice (setting [2]), the change in vivo at 20 mg/kg was -51%. Moreover, in experiment [1] (50 mg/kg PO), the “SHR mm Hg (decrease in mean arterial blood pressure)” value is -20 mm Hg.

For `CC1Oc2ccc(F)cc2COC12CCN(CCCC(c1cccc(F)c1)c1cccc(F)c1)CC2` (stereo not shown) [Example 76, 1'-[4,4-Bis(3-fluorophenyl)butyl]-7-fluoro-2-methylspiro[2H-1,4-benzodioxepin-3(5H)4'-piperidine]hydrochloride], the change in vivo at 20 mg/kg in the experiment on mice (setting [2]) is -38%. Besides, the “SHR mm Hg (decrease in mean arterial blood pressure)” value in experiment [1] (0.3 mg/kg PO) is listed as -31 mm Hg.

As to `CC1Oc2ccc(F)cc2COC12CCN(CCCCc1ccc(F)cc1)CC2` (stereo not shown) [Example 77, 1'-[4-(4-Fluorophenyl)butyl]-7-fluoro-2-methylspiro[2H-1,4-benzodioxepin-3(5H)4'-piperidine]hydrochloride], the change in vivo at 5 mg/kg in the experiment with mice (Table III, 5 mg/kg SC, read-out: PQW % (percent inhibition of writhing)) is -66%. In addition, the ED50 with mice (Table III) was 4.3 mg/kg. Further, the “SHR mm Hg (decrease in mean arterial blood pressure)” value in experiment [1] (50 mg/kg PO) is recorded as -40 mm Hg.

In the case of `CC1Oc2ccc(Cl)cc2COC12CCN(CCCCc1ccc(F)cc1)CC2` (stereo not shown) [Example 78, 1'-[4-(4-Fluorophenyl)butyl]-7-chloro-2-methylspiro[2H-1,4-benzodioxepin-3(5H)4'-piperidine]hydrochloride], in the experiment with mice (setting [2]), the change in vivo at 20 mg/kg is -68%. In addition, the ED50 with mice (Table III) stood at 6.8 mg/kg. Besides, in experiment [1] (50 mg/kg PO), the “SHR mm Hg (decrease in mean arterial blood pressure)” value is -61 mm Hg.

On to `CC1Oc2ccc(Cl)cc2COC12CCN(CCCC(c1cccc(F)c1)c1cccc(F)c1)CC2` (stereo not shown) [Example 79, 1'-[4,4-Bis(3-fluorophenyl)butyl]-7-chloro-2-methylspiro[2H-1,4-benzodioxepin-3(5H)4'-piperidine]hydrochloride], for which the change in vivo at 20 mg/kg in the experiment on mice (setting [2]) is -91%. Also, in experiment [1] (0.3 mg/kg PO), the “SHR mm Hg (decrease in mean arterial blood pressure)” value was -27 mm Hg.

With `CC(=O)N1CCC2(CC1)OCc1cc([N+](=O)[O-])ccc1OC2C` (stereo not shown) [Example 80, 1'-Acetyl-2-methyl-7-nitrospiro[2H-1,4-benzodioxepin-3(5H)4'-piperidine]], in the experiment with mice (setting [2]), the change in vivo at 20 mg/kg is -22%. Besides, the “SHR mm Hg (decrease in mean arterial blood pressure)” value in experiment [1] (50 mg/kg PO) was -19 mm Hg.

For the compound `CC1Oc2ccc(Cl)cc2COC12CCN(CCOC(c1ccc(F)cc1)c1ccc(F)cc1)CC2` (stereo not shown) [Example 85, 7-Chloro-1'-[2-(bis(4-fluorophenyl)methoxy)ethyl]-2-methylspiro[2H-1,4-benzodioxepin-3(5H)4'-piperidine]hydrochloride], in the experiment with mice (sc, read-out: PQW % (percent inhibition of writhing)), the change in vivo at 20 mg/kg was -44%. In addition, in experiment [1] (50 mg/kg PO), the “SHR mm Hg (decrease in mean arterial blood pressure)” value is reported as -46 mm Hg.

Turning to `CC1Oc2ccc(Cl)cc2COC12CCN(CCCCC(c1ccc(F)cc1)c1ccc(F)cc1)CC2` (stereo not shown) [Example 86, 7-Chloro-2-methyl-1'-[5,5-bis(4-fluorophenyl)pentyl]-spiro[2H-1,4-benzodioxepin-3(5H)4'-piperidine]hydrochloride], the change in vivo at 20 mg/kg in the experiment with mice (setting [2]) is -25%. In addition, the “SHR mm Hg (decrease in mean arterial blood pressure)” value in experiment [1] (50 mg/kg PO) was -42 mm Hg.

As for `CC1Oc2ccccc2COC12CCN(CC(O)COc1ccccc1)CC2` (stereo not shown) [Example 88, 2-Methyl-1'-(2-hydroxy-3-phenoxypropyl)spiro[2H-1,4-benzodioxepin-3(5H)4'-piperidine]hydrochloride], the change in vivo at 20 mg/kg in the experiment on mice (setting [2]) is -99%. Further, the “SHR mm Hg (decrease in mean arterial blood pressure)” value in experiment [1] (50 mg/kg PO) is reported as -34 mm Hg.

Regarding `COc1ccc(OCC(O)CN2CCC3(CC2)OCc2ccccc2OC3C)cc1` (stereo not shown) [Example 89, 2-Methyl-1'-[2-hydroxy-3-(4-methoxyphenoxy)propyl]-spiro[2H-1,4-benzodioxepin-3(5H)4'-piperidine]hydrochloride], the change in vivo at 20 mg/kg in the experiment with mice (setting [2]) was -57%. In addition, in experiment [1] (50 mg/kg PO), the “SHR mm Hg (decrease in mean arterial blood pressure)” value is given as -40 mm Hg.

As to `CC1Oc2ccc(Cl)cc2COC12CCN(CC(O)COc1ccccc1)CC2` (stereo not shown) [Example 91, 7-Chloro-2-methyl-1'-(2-hydroxy-3-phenoxypropyl)spiro[2H-1,4-benzodioxepin-3(5H)4'-piperidine]hydrochloride], in the experiment on mice (setting [2]), the change in vivo at 20 mg/kg is -67%. Moreover, the “SHR mm Hg (decrease in mean arterial blood pressure)” value in experiment [1] (50 mg/kg PO) is listed as -29 mm Hg.

Consider `COc1ccc(OCC(O)CN2CCC3(CC2)OCc2cc(Cl)ccc2OC3C)cc1` (stereo not shown) [Example 92, 7-Chloro-2-methyl-1'-[2-hydroxy-3-(4-methoxyphenoxy)propyl]spiro[2H-1,4-benzodioxepin-3(5H)4'-piperidine]hydrochloride], for which, in the experiment on mice (setting [2]), the change in vivo at 20 mg/kg is -47%. The “SHR mm Hg (decrease in mean arterial blood pressure)” value in experiment [1] (50 mg/kg PO) is listed as -66 mm Hg.

Consider `CC1Oc2ccc(Cl)cc2COC12CCN(CC(O)COc1ccc(F)cc1)CC2` (stereo not shown) [Example 93, 7-Chloro-2-methyl-1'-[2-hydroxy-3-(4-fluorophenoxy)propyl]spiro[2H-1,4-benzodioxepin-3(5H)4'-piperidine]hydrochloride], for which the change in vivo at 20 mg/kg in the experiment with mice (setting [2]) is -88%. Also, the “SHR mm Hg (decrease in mean arterial blood pressure)” value in experiment [1] (50 mg/kg PO) was -24 mm Hg.
